# Like-named read-outs stand apart in the source and are kept apart here.
# Assays:
# [1] = tested on: Enterococcus faecium ATCC 8043; test: In vitro antibacterial activity, agar dilution MIC; type: cell-based; conditions: ATCC8043, read-out: MIC
# Protocol: (§1) The antimicrobial spectra of a number of compounds of the invention were tested by the following method:
# (§2) Twelve petri dishes containing successive aqueous dilutions of the test compound mixed with 10 ml of sterilized Brain Heart Infusion agar (Difco 0418-01-5) are prepared. Each plate is inoculated with 1:100 (or 1:10 for slow growing strains, primarily Micrococcus and Streptococcus) dilutions of up to 32 different microorganisms, using a Steers replicator block The inoculated plates are incubated at 35°-37° C. for 20-24 hours. In addition, a control plate, using BHI agar containing no test compound, is prepared and incubated at the beginning and end of each test.
# (§3) An additional plate containing a compound having known susceptibility patterns for the organisms being tested and belonging to the same antibiotic class as the test compound is also prepared and incubated as a further control, as well as to provide test-to-test comparability. Erythromycin A was used for this purpose.
# (§4) After incubation, each disk is read. The MIC is defined as the lowest concentration of drug yielding no growth, a slight haze, or sparsely isolated colonies on the inoculum spot as compared to the growth control.
# Escherichia coli DC-2 = test: In vitro antibacterial activity, agar dilution MIC; type: cell-based
# Protocol: as §1, §2, §3, §4
# Escherichia coli H560 = test: In vitro antibacterial activity, agar dilution MIC; type: cell-based; conditions: E. coli H560, Brain Heart Infusion agar, 20-24 hours, read-out: MIC
# Protocol: as §1, §2, §3, §4
# Escherichia coli Juhl = test: In vitro antibacterial activity, agar dilution MIC; type: cell-based
# Protocol: as §1, §2, §3, §4
# Escherichia coli SS = test: In vitro antibacterial activity, agar dilution MIC; type: cell-based; conditions: read-out: MIC
# Protocol: as §1, §2, §3, §4
# [2] = tested on: Micrococcus luteus ATCC 4698; test: In vitro antibacterial activity, agar dilution MIC; type: cell-based
# Protocol: as §1, §2, §3, §4
# [3] = tested on: Micrococcus luteus ATCC 9341; test: In vitro antibacterial activity, agar dilution MIC; type: cell-based; conditions: ATCC9341, M. luteus ATCC 9341, Brain Heart Infusion agar, 20-24 hours, read-out: MIC
# Protocol: as §1, §2, §3, §4
# Staphylococcus aureus 45 = test: In vitro antibacterial activity, agar dilution MIC; type: cell-based
# Protocol: as §1, §2, §3, §4
# [4] = tested on: Staphylococcus aureus A5177; test: In vitro antibacterial activity, agar dilution MIC; type: cell-based; conditions: S. aureus A5177, Brain Heart Infusion agar, 20-24 hours, read-out: MIC
# Protocol: as §1, §2, §3, §4
# [5] = tested on: Staphylococcus aureus ATCC 6538P; test: In vitro antibacterial activity, agar dilution MIC; type: cell-based; conditions: ATCC6538P, S. aureus ATCC 6538P, Brain Heart Infusion agar, 35-37° C., 20-24 hours, read-out: MIC
# Protocol: as §1, §2, §3, §4
# [6] = tested on: Staphylococcus aureus CMX 503A; test: In vitro antibacterial activity, agar dilution MIC; type: cell-based; conditions: CMX503A, S. aureus CMX 503A, Brain Heart Infusion agar, 20-24 hours, read-out: MIC
# Protocol: as §1, §2, §3, §4
# [7] = tested on: Staphylococcus aureus CMX 553; test: In vitro antibacterial activity, agar dilution MIC; type: cell-based; conditions: CMX553, S. aureus CMX 553, Brain Heart Infusion agar, 20-24 hours, read-out: MIC
# Protocol: as §1, §2, §3, §4
# [8] = tested on: Staphylococcus aureus CMX 686B; test: In vitro antibacterial activity, agar dilution MIC; type: cell-based; conditions: CMX686B, S. aureus CMX 686B, Brain Heart Infusion agar, 20-24 hours, read-out: MIC
# Protocol: as §1, §2, §3, §4
# [9] = tested on: Staphylococcus epidermidis 3519; test: In vitro antibacterial activity, agar dilution MIC; type: cell-based; conditions: S. epidermidis 3519, Brain Heart Infusion agar, 20-24 hours, read-out: MIC
# Protocol: as §1, §2, §3, §4
# [10] = tested on: Streptococcus agalactiae CMX 508; test: In vitro antibacterial activity, agar dilution MIC; type: cell-based; conditions: CMX508, S. agalactiae CMX 508, Brain Heart Infusion agar, 20-24 hours, read-out: MIC
# Protocol: as §1, §2, §3, §4
# [11] = tested on: Streptococcus bovis A5169; test: In vitro antibacterial activity, agar dilution MIC; type: cell-based; conditions: read-out: MIC
# Protocol: as §1, §2, §3, §4
# [12] = tested on: Streptococcus pyogenes 2548 INDUC; test: In vitro antibacterial activity, agar dilution MIC; type: cell-based; conditions: S. pyogenes 2548 INDUC, Brain Heart Infusion agar, 20-24 hours, read-out: MIC
# Protocol: as §1, §2, §3, §4
# [13] = tested on: Streptococcus pyogenes 930 CONST; test: In vitro antibacterial activity, agar dilution MIC; type: cell-based; conditions: 930CONST
# Protocol: as §1, §2, §3, §4
# [14] = tested on: Streptococcus pyogenes EES61; test: In vitro antibacterial activity, agar dilution MIC; type: cell-based; conditions: S. pyogenes EES61, Brain Heart Infusion agar, 20-24 hours, read-out: MIC
# Protocol: as §1, §2, §3, §4
# [15] = tested on: Staphylococcus aureus 45 RAR 2; test: microbe, parasite or virus in culture; type: cell-based; conditions: 45RAR2
# Protocol: as §1, §2, §3, §4
# [16] = tested on: Staphylococcus aureus (NCTC 10649); test: In-vivo mouse protection assay (acute mouse protection test); parameters: species or system Swiss albino mice
# Protocol: (§5) The acute mouse protection test is conducted on ten mice with each of three levels of drug. Mouse mortality is used to calculate an ED50 value, i.e., the dose of drug required to protect 50% of the test animals against death due to the inoculum challenge.
# (§6) The acute mouse protection test is conducted on female, Swiss albino mice, 18-20 grams in weight. […] To check the potency of the inoculum, a titration of the indicated test organism is carried out in control animals. The treatment group of animals is dosed with the test compound at 1 and 5 hours post infection and observed for 7 days. The ED50 values are calculated using the mortality data collected.
# [17] = tested on: Streptococcus pneumoniae (6303); test: as above; parameters: species or system Swiss albino mice; conditions: 168 h
# Protocol: as §5, §6
# [18] = tested on: Streptococcus pyogenes C-203; test: as above; parameters: species or system Swiss albino mice
# Protocol: as §5, §6
# [19] = tested on: Staphylococcus aureus 642A; test: In vitro antibacterial activity, agar dilution MIC; type: cell-based; conditions: S. aureus 642A, Brain Heart Infusion agar, 20-24 hours, read-out: MIC
# Protocol: as §1, §2, §3, §4
# [20] = tested on: Staphylococcus aureus NCTC 10649; test: In vitro antibacterial activity, agar dilution MIC; type: cell-based; conditions: NCTC10649, S. aureus NCTC 10649, Brain Heart Infusion agar, 20-24 hours, read-out: MIC
# Protocol: as §1, §2, §3, §4
SMILES,MIC [1],MIC (Escherichia coli H560),MIC (Escherichia coli Juhl),MIC (Escherichia coli SS),MIC [3],MIC [4],MIC [5],MIC [6],MIC [7],MIC [8],MIC [9],MIC [10],MIC [11],MIC [12],MIC [13],MIC [14],MIC [15],ED50 ([17]; po),other results
CC[C@H]1OC(=O)[C@H](C)[C@@H](O[C@H]2C[C@@](C)(OC)[C@@H](N)[C@H](C)O2)[C@H](C)[C@@H](O[C@@H]2O[C@H](C)C[C@H](N(C)C)[C@H]2O)[C@](C)(O)C[C@@H](C)[C@@H](N2CCCCC2)[C@H](C)[C@@H](O)[C@]1(C)O [Example 31],0.2 µg/mL,1.56 µg/mL,6.2 µg/mL,0.2 µg/mL,0.05 µg/mL,6.2 µg/mL,0.78 µg/mL,0.78 µg/mL,0.39 µg/mL,0.39 µg/mL,0.78 µg/mL,0.05 µg/mL,0.02 µg/mL,6.2 µg/mL,> 100 µg/mL,0.05 µg/mL,0.78 µg/mL,13.8 mg/kg,"MIC (Escherichia coli DC-2; DC2, E. coli DC-2, Brain Heart Infusion agar, 20-24 hours, read-out: MIC): 3.1 µg/mL; MIC ([2]; ATCC4698): 0.39 µg/mL; MIC (Staphylococcus aureus 45; 45): 0.39 µg/mL; ED50 ([16]; NCTC10649, 168 h, Oral, S. aureus NCTC 10649, dosed 1 and 5 hours post infection, 7 days, read-out: ED50): 125 mg/kg; ED50 ([16]; NCTC10649, sc, 168 h, Subcutaneous, S. aureus NCTC 10649, dosed 1 and 5 hours post infection, 7 days, read-out: ED50): 25.7 mg/kg; ED50 ([17]; sc, Subcutaneous, S. pneumoniae 6303, dosed 1 and 5 hours post infection, 7 days, read-out: ED50): 1 mg/kg; ED50 ([18]; C203, 168 h, Oral, S. pyogenes C-203, dosed 1 and 5 hours post infection, 7 days, read-out: ED50): 27.9 mg/kg; ED50 ([18]; C203, sc, 168 h, Subcutaneous, S. pyogenes C-203, dosed 1 and 5 hours post infection, 7 days, read-out: ED50): 0.8 mg/kg"
CC[C@H]1OC(=O)[C@H](C)[C@@H](O[C@H]2C[C@@](C)(OC)[C@H](N)[C@H](C)O2)[C@H](C)[C@@H](O[C@@H]2O[C@H](C)C[C@H](N(C)C)[C@H]2O)[C@](C)(O)C[C@@H](C)[C@@H](N2CCCCC2)[C@H](C)[C@@H](O)[C@]1(C)O [Example 32],0.2 µg/mL,3.1 µg/mL,25 µg/mL,0.2 µg/mL,0.05 µg/mL,6.2 µg/mL,0.78 µg/mL,0.39 µg/mL,0.78 µg/mL,0.78 µg/mL,0.78 µg/mL,0.1 µg/mL,0.02 µg/mL,6.2 µg/mL,> 100 µg/mL,0.1 µg/mL,1.56 µg/mL,,"MIC (Escherichia coli DC-2; DC2): 12.5 µg/mL; MIC ([2]; ATCC4698, M. luteus ATCC 4698, Brain Heart Infusion agar, 20-24 hours, read-out: MIC): 0.78 µg/mL; MIC (Staphylococcus aureus 45; S. aureus 45, Brain Heart Infusion agar, 20-24 hours, read-out: MIC): 0.78 µg/mL; MIC [19]: 1.56 µg/mL; MIC [20]: 1.56 µg/mL"
CC[C@H]1OC(=O)[C@H](C)[C@@H](O[C@H]2C[C@@](C)(OC)[C@@H](O)[C@H](C)O2)[C@H](C)[C@@H](O[C@@H]2O[C@H](C)C[C@H](N(C)C)[C@H]2O)[C@](C)(O)C[C@@H](C)C(=O)[C@H](C)[C@@H](O)[C@]1(C)O [erythromycin],,,,,,,,,,,,,,,,,,21.5 mg/kg,"ED50 ([16]; NCTC10649, po, 168 h): 98 mg/kg; ED50 ([16]; NCTC10649, sc, 168 h): 20 mg/kg; ED50 ([17]; sc): 0.9 mg/kg; ED50 ([18]; C203, po, 168 h): 12 mg/kg; ED50 ([18]; C203, sc, 168 h): 1.8 mg/kg"

# — patent US5075289A, “9-R-azacyclic erythromycin antibiotics” (priority 1988, dated 1991)
